Some results are limits rather than exact numbers.

Assay [1] deals with WDR5 protein (22-334aa) with MLL1 polypeptide (3672-3773aa) (Homo sapiens, UniProt P61964). Kind of assay: WDR5-MLL PPI inhibitory activity test (HTRF). Type of assay: binding. The settings on record: His-tagged WDR5 and biotin-tagged MLL1 polypeptide. From the text: Test Example 1: WDR5-MLL PPI Inhibitory Activity Test
Effect of the compounds on WDR5 (WD Repeat Domain 5) and MLL1 (mixed-lineage leukemia 1) peptides at molecular level.
The effect of the compound on the interaction of WDR5 protein (22-334aa) with MLL1 polypeptide (3672-3773aa) was detected by HTRF (Homogeneous Time-Resolved Fluorescence) technology. When the N-terminal His-tagged WDR5 recognized by the Anti-6His-Eu cryptate donor interacts with the biotin-tagged MLL1 polypeptide recognized by the streptavidin-APC receptor, the donor and acceptor are pulled close enough to produce fluorescence resonance energy transfer (FRET). […] Therefore, the decrease in FRET signal can reflect the compound's inhibition on the interaction of WDR5 with MLL1 polypeptide.
The compound to be tested was diluted 3-fold with DMSO. […] Then the compound was diluted with reaction buffer (25 mM HEPES pH=7.5, 100 mM NaCl, 0.05% Tween 20) to control the final concentration of DMSO at 0.5%. In a 384-well plate, 1 μL of compound and 3 μL of 42 nM WDR5 protein were added, centrifuged at 1000 rpm for 1 min, incubated at room temperature for 60 min, followed by adding 3 μL of 333 nM MLL1 polypeptide with incubation at room temperature for 10 min, and followed by adding 3 μL of a mixed liquid of Anti-6His-Eu cryptate and streptavidin-APC with centrifugation at 1000 rpm for 1 mi and incubation at room temperature protected from light for 60 min, using a multifunction microplate reader (EnVision®2105) to read the signal. The following controls were set up per plate: control group (1 μL with 5% DMSO reaction buffer, 3 μL of 42 nM WDR5, 3 μL of MLL1 polypeptide, 3 μL of Anti-6His-Eu cryptate and streptavidin-APC). Blank group (1 μL reaction buffer with 5% DMSO, 3 μL reaction buffer, 3 μL MLL1 polypeptide, 3 μL Anti-6His-Eu cryptate and streptavidin-APC). The test data was calculated according to the signal ratio of two beams of fluorescence at different wavelengths: (665 nm signal/620 nm signal)*10000. […] The IC50 value was calculated using XLfit software.
Background: Time-resolved FRET reads energy transfer from a long-lived donor to a nearby acceptor.

In a further assay the test system is MV4-11 cells. Kind of assay: MV4-11 cell proliferation inhibition experiment (CellTiter-Glo). The settings on record: Homo sapiens, 144 h, 6 days, read-out: cell proliferation inhibitory activity. In kind it is cell-based. Here is the method:
Test Example 2: MV4-11 Cell (ATCC: CRL-9591) Proliferation Inhibition Experiment
ATP in living cells was quantitatively detected by CellTiter-Glo (Promega-G7573) Luminescence Cell Viability Assay Kit to determine the effect of the compounds to be tested on cell proliferation. • Step 1: MV4-11 cells were seeded in 96-well plates (Greiner-655098) at a density of 1,500 cells per well with a volume of 140 μL per well; Cell culture medium components included RPM11640 (Gibco-A10491-01)+10% FBS (Gibco-10099-141C)+1% Penicillin-Streptomycin (5,000 U/mL, Gibco-15070-063). • Step 2: On the day of cell seeding, the cells were treated with the compound to be tested. The compound to be tested was diluted with a 3-fold gradient, and a total of 9 concentration gradients were set. DMSO (Sigma, D2650) with 0.5% final concentration or a DMSO solution containing the compound to be tested was added per well with 2 or 3 replicate wells at each concentration point. The plates were incubated at 37° C. in a 5% CO2 incubator (Thermo Scientific Steri-Cycle 371) for 6 days. • Step 3: The cell viability in the control and treatment groups was detected with CellTiter-Glo Luminescent Cell Viability Assay Kit. 50 μL of CellTiter-Glo was added per well, mixed well, and incubated for 15 min at room temperature protected from light. According to the kit instructions, the chemiluminescence signal was read using a multifunctional microplate reader (EnVision, PerkinElmer).
The inhibition percentage (%) of the compound at each concentration point was calculated by the following formula:
Inhibition Percentage (%)=(1−signal value of the group treated with the compound/signal value of the group treated with DMSO)*100.
The value of cell proliferation semi-inhibitory concentration IC50 was calculated using GraphPad Prism software, and the results are shown in Table 2.
(Cellular ATP, detected with luciferase, serves as a proxy for viable cell number.)

With `CCOc1cc([C@H](C)N2CC3(CC3)c3c(CN4CCN(C5CC5)CC4)cc(Cn4ccnc4NC)cc3C2=O)ncc1F` [Compound 64, (S)-5′-((4-cyclopropylpiperazin-1-yl)methyl)-2′-(1-(4-ethoxy-5-fluoropyridine-2-yl)ethyl)-7′-((2-(methylamino)-1H-imidazol-1-yl)methyl)-2′,3′-dihydro-1′H-spiro[cyclopropan-1,4′-isoquinoline]-1′-one], the IC50 in assay [1] is below 0.02 µM; in the assay with MV4-11 cells, 0.05 to 0.2 µM.

Consider `CCOc1cc(CN2CC3(CC3)c3c(CN4CCN(C)CC4)cc(Cn4ccnc4NC)cc3C2=O)nn1C` [Compound 66, 2′-((5-ethoxy-1-methyl-1H-pyrazole-3-yl)methyl)-7′-((2-(methylamino)-1H-imidazol-1-yl)methyl)-5′-((4-methylpiperazin-1-yl)methyl)-2′,3′-dihydro-1′H-spiro[cyclopropan-1,4′-isoquinoline]-1′-one], for which the values for the IC50 (in assay [1]; in the assay on MV4-11 cells) were below 0.02 µM and below 0.05 µM, respectively.

Turning to `CCOc1cc([C@H](C)N2CC3(CC3)c3c(CN4CC(F)(F)C4)cc(Cn4ccnc4NC)cc3C2=O)ncc1C#N` [Compound 67, (S)-6-(1-(5′-((3,3-difluoroazetidinyl-1-yl)methyl)-7′-((2-(methylamino)-1H-imidazol-1-yl)methyl)-1′-one-1′H-spiro[cyclopropan-1,4′-isoquinoline]-2′(3′H)-yl)ethyl)-4-ethoxynicotinonitrile], the IC50 was below 0.02 µM in assay [1] and below 0.05 µM with MV4-11 cells.

For `CCOc1cc([C@H](C)N2CC3(CC3)c3c(CN4CC(F)(F)C4)cc(Cn4ccnc4NC)cc3C2=O)ncc1F` [Compound 68, (S)-5′-((3,3-difluoroazetidinyl-1-yl)methyl)-2′-(1-(4-ethoxy-5-fluoropyridine-2-yl)ethyl)-7′-((2-(methylamino)-1H-imidazol-1-yl)methyl)-2′,3′-dihydro-1′H-spiro[cyclopropan-1,4′-isoquinoline]-1′-one], the figures for the IC50 (in assay [1]; in the assay on MV4-11 cells) were below 0.02 µM and 0.05 to 0.2 µM, respectively.

As for `CCOc1cc([C@H](C)N2CC3(CC3)c3c(CN4C5CC4CN(C)C5)cc(Cn4ccnc4NC)cc3C2=O)ncc1F` [Compound 70, 2′-((S)-1-(4-ethoxy-5-fluoropyridine-2-yl)ethyl)-5′-((3-methyl-3,6-diazadicyclo[3.1.1]heptan-6-yl)methyl)-7′-((2-(methylamino)-1H-imidazol-1-yl)methyl)-2′,3′-dihydro-1′H-spiro[cyclopropan-1,4′-isoquinoline]-1′-one], the figures for the IC50 (in assay [1]; in the assay on MV4-11 cells) were below 0.02 µM and below 0.05 µM, respectively.

As for `CCOc1cc(CN2CC3(CC3)c3c(CN(C)C)cc(Cn4ccnc4NC)cc3C2=O)ncc1C#N` [Compound 71, 6-((5′-((dimethylamino)methyl)-7′-((2-(methylamino)-1H-imidazol-1-yl)methyl)-1′-one-1′H-spiro[cyclopropan-1,4′-isoquinoline]-2′(3′H)-yl)methyl)-4-ethoxynicotinonitrile], the IC50 in assay [1] is below 0.02 µM; in the assay with MV4-11 cells it was below 0.05 µM.

Consider `CCOc1cc([C@H](C)N2CC3(CCC3)c3c(CN4CCOCC4)cc(Cn4ccnc4NC)cc3C2=O)ncc1C#N` [Compound 72, (S)-4-ethoxy-6-(1-(7′-((2-(methylamino)-1H-imidazol-1-yl)methyl)-5′-(morpholinylmethyl)-1′-one-1′H-spiro[cyclobutyl-1,4′-isoquinoline]-2′(3′H)-yl)ethyl)nicotinonitrile], for which the IC50 in assay [1] is below 0.02 µM; with MV4-11 cells it was below 0.05 µM.

For the compound `CCOc1cc([C@H](C)N2CC3(CCC3)c3c(CN4CCN(C)CC4)cc(Cn4ccnc4NC)cc3C2=O)ncc1C#N` [Compound 73, (S)-4-ethoxy-6-(1-(7′-((2-(methylamino)-1H-imidazol-1-yl)methyl)-5′-((4-methylpiperazin-1-yl)methyl)-1′-one-1′H-spiro[cyclobutan-1,4′-isoquinoline]-2′(3′H)-yl)ethyl)nicotinonitrile], the IC50 was below 0.02 µM in assay [1] and below 0.05 µM with MV4-11 cells.

As for `CCOc1cc(CN2CC3(CCC3)c3c(CN(C)C)cc(Cn4ccnc4NC)cc3C2=O)ncc1C#N` [Compound 77, 6-((5′-((dimethylamino)methyl)-7′-((2-(methylamino)-1H-imidazol-1-yl)methyl)-1′-one-1′H-spiro[cyclobutan-1,4′-isoquinoline]-2′(3′H)-yl)methyl)-4-ethoxynicotinonitrile], the IC50 in assay [1] is below 0.02 µM; with MV4-11 cells, below 0.05 µM.

Consider `CCOc1cc([C@H](C)N2CC3(CCC3)c3c(CN4CCN(S(C)(=O)=O)CC4)cc(Cn4ccnc4NC)cc3C2=O)ncc1F` [Compound 78, (S)-2′-(1-(4-ethoxy-5-fluoropyridine-2-yl)ethyl)-7′-((2-(methylamino)-1H-imidazol-1-yl)methyl)-5′-((4-(methylsulfonyl)piperazin-1-yl)methyl)-2′,3′-dihydro-1′H-spiro[cyclobutan-1,4′-isoquinoline]-1′-one], for which the IC50 in assay [1] is below 0.02 µM; in the assay with MV4-11 cells it was below 0.05 µM.

With `CCOc1cc([C@H](C)N2CC3(CCC3)c3c(CN4CC(F)(F)C4)cc(Cn4ccnc4NC)cc3C2=O)ncc1C#N` [Compound 79, (S)-6-(1-(5′-((3,3-difluoroazetidinyl-1-yl)methyl)-7′-((2-(methylamino)-1H-imidazol-1-yl)methyl)-1′-one-1′H-spiro[cyclobutan-1,4′-isoquinoline]-2′(3′H)-yl)ethyl)-4-ethoxynicotinonitrile], the IC50 in assay [1] is below 0.02 µM; in the assay with MV4-11 cells, below 0.05 µM.

As to `CCOc1cc([C@H](C)N2CC3(CCC3)c3c(CN4CCN(S(C)(=O)=O)CC4)cc(Cn4ccnc4NC)cc3C2=O)ncc1C#N` [Compound 80, (S)-4-ethoxy-6-(1-(7′-((2-(methylamino)-1H-imidazol-1-yl)methyl)-5′-((4-(methylsulfonyl)piperazin-1-yl)methyl)-1′-one-1′H-spiro[cyclobutan-1,4′-isoquinoline]-2′(3′H)-yl)ethyl)nicotinonitrile], the IC50 is below 0.02 µM in assay [1] and below 0.05 µM in the assay with MV4-11 cells.

`CCOc1cc([C@H](C)N2CC3(CCC3)c3c(CN4CCC(OC)CC4)cc(Cn4ccnc4NC)cc3C2=O)ncc1C#N` [Compound 81]: the IC50 in assay [1] was below 0.02 µM; in the assay with MV4-11 cells, below 0.05 µM.

As for `CCOc1cc(CN2CC3(CCC3)c3c(CN4CC(F)(F)C4)cc(Cn4ccnc4NC)cc3C2=O)ncc1C#N` [Compound 82, 6-((5′-((3,3-difluoroazetidinyl-1-yl)methyl)-7′-((2-(methylamino)-1H-imidazol-1-yl)methyl)-1′-one-1′H-spiro[cyclobutan-1,4′-isoquinoline]-2′(3′H)-yl)methyl)-4-ethoxynicotinonitrile], the IC50 in assay [1] is below 0.02 µM; in the assay on MV4-11 cells it was below 0.05 µM.

For the compound `CCOc1cc([C@H](C)N2CC3(CCC3)c3c(CN4CCN(C)CC4)cc(Cn4ccnc4NC)cc3C2=O)ncc1F` [Compound 83, (S)-2′-(1-(4-ethoxy-5-fluoropyridine-2-yl)ethyl)-7′-((2-(methylamino)-1H-imidazol-1-yl)methyl)-5′-((4-methylpiperazin-1-yl)methyl)-2′,3′-dihydro-1′H-spiro[cyclobutan-1,4′-isoquinoline]-1′-one], the IC50 is below 0.02 µM in assay [1] and below 0.05 µM in the assay on MV4-11 cells.

(Values after patent US20240101535A1, “DIHYDROISOQUINOLINONE DERIVATIVE AND APPLICATION THEREOF” (ETERN BIOPHARMA (SHANGHAI) CO., LTD., priority 2020, published 2024).)
